Assay results: PubChem BioAssay AID2060511 (Molecular Pharmacology Branch, DTP, NCI, 2025)
pIC50: −log10 of the molar value.

Tested on: 422866-222-R5-J1-PDC spheroids with HUVEC/MSC, viability
Assay: Anticancer human tumor 422866-222-R5-J1-PDC patient-derived pancreatic adenocarcinoma cell line growth inhibition [GQUAD]
Conditions: for pIC50: curve of first compound; for viability, T/C: stronger effect = lower value
Text: DNA G-quadruplex Stabilizer Agents in Combinations in Complex Spheroids
A high-throughput screen of multi-cell type tumor spheroids was designed to identify active combinations of DNA G-quadruplex stabilizer agents and targeted small molecules. Complex spheroids include a stromal component modeled by human endothelial cells (HUVEC) and fibroblasts modeled by human mesenchymal stem cells (MSCs). The concentration ranges selected for each drug and investigational agent were based upon clinically achievable concentrations if the clinical Cmax of the agent was known.
Compounds. The drugs and investigational agents: pidnarulex (CX-5461; NSC782164), APTO-253 (NSC789042), BRACO-19 (NSC847499), peposertib (NSC802822), ceralasertib (NSC780249), elimusertib (NSC800525), camonsertib (NSC841442), AZD-1390 (NSC803789), olaparib (NSC753686), talazoparib (NSC767125), ART-558 (NSC835418), sotorasib (NSC818433), MRTX-1133 (NSC836407), SN-38 (NSC673596), topotecan (NSC609699), etoposide (NSC141540), doxorubicin (NSC123127), gemcitabine (NSC613327), 5-fluorouracil (NSC19893), paclitaxel (NSC125973), vemurafenib (NSC761431), panobinostat (NSC761190), R-306465 (JNJ-16241199; NSC773264), adavosertib (NSC754352), TP-3654 (NSC805149), carboplatin (NSC241240), KSQ-4279 (NSC840948), and staurosporine (NSC755774) were obtained from the National Cancer Institute (NCI) Developmental Therapeutics Program Chemical Repository (34). The FDA-approved anticancer drug set is available from the NCI Developmental Therapeutics Program. […] The stock solutions were prepared in dimethyl sulfoxide (DMSO, Sigma-Aldrich, St. Louis, MO, cat. D2650) at 800-fold the tested concentration and stored at -70 degrees C prior to their use. All drugs and investigational agents were tested over a range starting from a high concentration at or near the clinical Cmax and decreasing in half-log increments. If the clinical Cmax for an agent had not been determined, the highest concentration tested was 10 microM.
2.3 Cell Culture. All cells were maintained in an incubator at 37 degrees C and 5% CO2 with 95% humidity. The PDC lines were cultured according to standard operating procedures established by the NCI PDMR. All PDCs were thawed and cultured in Matrigel-coated flasks prepared with a working solution of 1X Ham's F-12 nutrient mix, without supplementation (Invitrogen, cat. 11765054), 100 U/mL penicillin-streptomycin (Invitrogen, cat. 15140122), and 2.5% Matrigel (Corning Inc., cat. 354248) for the first three passages. The 857933-349-R-J2-PDC line was cultured in 6C/Colon 1B media, which includes advanced DMEM/F-12 (Thermo Fisher Scientific, cat. 12634028), 10 mM HEPES (Thermo Fisher Scientific, cat. 15630080), 1X GlutaMAX supplement (Thermo Fisher Scientific, cat. 35050061), 0.1 mg/mL primocin (InvivoGen, cat. ant-pm-2), 10% defined fetal bovine serum, heat inactivated (HyClone Laboratories Inc., cat. SH30070.03HI), 50% L-WRN conditioned media (ATCC, cat. CRL-3276), 1.25 mM N-Acetyl-L-cysteine (Sigma-Aldrich, cat. A9165), 10 mM nicotinamide (Sigma-Aldrich, cat. N0636), 1X B-27 supplement (Thermo Fisher Scientific, cat. 17504044), 1X N-2 supplement (Thermo Fisher Scientific, cat. 17502048), 10 microM Y-27632 dihydrochloride (Tocris Bioscience, cat. 1254), and 50 ng/mL human EGF recombinant protein (Thermo Fisher Scientific, cat. PHG0311). The 485176-168-R4-J1-PDC line was cultured in Panc media, which includes all 6C/Colon 1B media components plus 100 ng/mL human FGF-10 (Thermo Fisher Scientific, cat. 100-26), 500 nM SB-431542 (Selleckchem, cat. S1067), and gastrin (Tocris, cat. 3006).
[…]
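Also: spheroids exposed to compounds for seven days before reading.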
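For viability, T/C in this document: percent viability relative to DMSO vehicle control taken as 100%.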

CC1COCCN1c1cc(C2(O)CC3CCC(C2)O3)c2cnn(-c3ccn[nH]3)c2n1 (configuration not stated) + CN(C)c1ccc(Nc2c3ccc(NC(=O)CCN4CCCC4)cc3nc3cc(NC(=O)CCN4CCCC4)ccc23)cc1
pIC50 (second compound 0.0316 µM): < 5.00
pIC50 (second compound 0.1 µM): 7.50
pIC50 (second compound 0.316 µM): < 5.00
pIC50 (second compound 1 µM): 7.50
pIC50 (second compound 3.16 µM): < 5.00
pIC50 (second compound 10 µM): 7.50
viability, T/C (second compound 0.0316 µM, first compound 0.0316 µM): 65.6%
viability, T/C (second compound 0.0316 µM, first compound 0.1 µM): 52.2%
viability, T/C (second compound 0.0316 µM, first compound 0.316 µM): 55.3%
viability, T/C (second compound 0.0316 µM, first compound 1 µM): 90%
viability, T/C (second compound 0.0316 µM, first compound 3.16 µM): 87.1%
viability, T/C (second compound 0.0316 µM, first compound 10 µM): 92.5%
viability, T/C (second compound 0.1 µM, first compound 0.0316 µM): 79.8%
viability, T/C (second compound 0.1 µM, first compound 0.1 µM): 49.7%
viability, T/C (second compound 0.1 µM, first compound 0.316 µM): 45.7%
viability, T/C (second compound 0.1 µM, first compound 1 µM): 108%
viability, T/C (second compound 0.1 µM, first compound 3.16 µM): 91.4%
viability, T/C (second compound 0.1 µM, first compound 10 µM): 90.4%
viability, T/C (second compound 0.316 µM, first compound 0.0316 µM): 78.8%
viability, T/C (second compound 0.316 µM, first compound 0.1 µM): 45.1%
viability, T/C (second compound 0.316 µM, first compound 0.316 µM): 64.5%
viability, T/C (second compound 0.316 µM, first compound 1 µM): 90%
viability, T/C (second compound 0.316 µM, first compound 3.16 µM): 94.1%
viability, T/C (second compound 0.316 µM, first compound 10 µM): 88.4%
viability, T/C (second compound 1 µM, first compound 0.0316 µM): 61.9%
viability, T/C (second compound 1 µM, first compound 0.1 µM): 49.6%
viability, T/C (second compound 1 µM, first compound 0.316 µM): 39.4%
viability, T/C (second compound 1 µM, first compound 1 µM): 88%
viability, T/C (second compound 1 µM, first compound 3.16 µM): 89.1%
viability, T/C (second compound 1 µM, first compound 10 µM): 83.8%
viability, T/C (second compound 3.16 µM, first compound 0.0316 µM): 57.4%
viability, T/C (second compound 3.16 µM, first compound 0.1 µM): 51.8%
viability, T/C (second compound 3.16 µM, first compound 0.316 µM): 50.2%
viability, T/C (second compound 3.16 µM, first compound 1 µM): 87.3%
viability, T/C (second compound 3.16 µM, first compound 3.16 µM): 95.5%
viability, T/C (second compound 3.16 µM, first compound 10 µM): 83.9%
viability, T/C (second compound 10 µM, first compound 0.0316 µM): 59.8%
viability, T/C (second compound 10 µM, first compound 0.1 µM): 47.3%
viability, T/C (second compound 10 µM, first compound 0.316 µM): 43.1%
viability, T/C (second compound 10 µM, first compound 1 µM): 93.1%
viability, T/C (second compound 10 µM, first compound 3.16 µM): 88.3%
viability, T/C (second compound 10 µM, first compound 10 µM): 88.5%
